What all share (assay type): cell-based, Chinese Hamster
One test has as its system Cell Line 3. Briefly: N-glycan oligosaccharide profiling, Cell Line 3 shake flasks (Example 2). Conditions: 30 mM supplement vs control. On the procedure: (§1) Two recombinant Chinese Hamster Ovary (CHO) cell lines expressing two different recombinant glycoproteins were evaluated in two different cultures vessels (shaker flasks and 3 L laboratory scale bioreactors). Cell Line 1 expressed Antibody 1, Cell Line 2 expressed Dual Variable Domain Immunoglobulin 1 (DVD 1) and Cell Line 3 expressed Antibody 2. Antibodies 1 and 2 are IgG1 proteins, and DVD 1 is an immunoglobulin with two variable domains as documented previously (Wu C. et al., (2007) Nat. Biotechnol 25(11):1290-1297). All cell lines were of CHO DUX-B11 origin based on a dhfr (dihydrofolate reductase) expression system. All cell lines were cultured in the same chemically defined basal media. Cell lines 1 and 2 were fed with the same chemically-defined feed media, but Cell Line 1 was fed media that was formulated at a 50% higher concentration. Each of the respective media were supplemented with either sucrose or tagatose to evaluate their potential impact on the resulting N-glycan oligosaccharide profile. All sugars were purchased from Sigma-Aldrich (St. Louis, Mo.). In preparation of the cultures, the cell lines were serially expanded through separate seed train inoculums to generate enough cells for inoculation.
(§2) Purified antibodies subjected to additional analytical characterization were purified using MabSelect™ Protein A (GE Healthcare, Piscataway, N.J.) using a low pH, step elution gradient, followed by buffer exchange using Corning Lifesciences (Tewksbury, Mass.) Spin Concentrator X UF columns according to the manufacturers' recommended procedures.
(§3) Approximately 200 μg of Protein A purified samples from Cell Lines 1 and 2 were treated with N-glycanase at 37° C. overnight to remove the N-glycans from the protein. The protein was precipitated and the supernatant was taken for subsequent chemical derivatization of the reducing end of the released glycans with 2-aminobenzamide (2-AB) dye. Following the derivatization step, the excess label was removed using clean up cartridges and the samples were analyzed using normal phase HPLC with fluorescent detection. Mobile phase A was 100% acetonitrile and mobile phase B was 50 mM ammonium formate pH 4.4. The glycans were eluted from a polyamide column (Prozyme, Hayward, Calif.) using a shallow gradient. The labeled glycans were detected using a fluorescence detector with an excitation wavelength of 330 nm and an emission wavelength of 420 nm.
Cell Line 3 was evaluated in shake flask culture in chemically defined media supplemented with 7, 15, and 30 mM sucrose. There was a significant increase in overall mannosylation levels, and thus a significant decrease in overall fucosylation levels. […] This cumulative increase of 19% in overall mannosylated N-glycans was accompanied by a 27% drop in NGA2F species, the majority of which was precluded from being formed due to the abrogation of the N-glycan biosynthetic reaction shown in FIG. 2. […] Antibody 3, purified from the sucrose supplemented cell cultures, was tested in a Cr-51 release assay to evaluate effector function, specifically ADCC activity. This was performed to verify that the lower level of fucosylated N-glycans linked to Antibody 3 would facilitate an increase in ADCC activity. Antibodies purified from the 30 mM sucrose supplemented culture had the highest levels of high mannose N-glycans, and lowest levels of fucosylated N-glycans.

A further test relates to Cell Line 1. The experiment in a line: 3 L laboratory-scale bioreactor culture of Cell Line 1, cell culture performance. Conditions: for Osmolality / cell viability / lactate / pCO2 / viable cell density: 50 mM supplement vs control; for final harvest titer ratio: relative to unsupplemented control. On the procedure:
(§4) Two recombinant Chinese Hamster Ovary (CHO) cell lines expressing two different humanized monoclonal antibodies (Antibody 1, Antibody 2) were evaluated in two different culture vessels (shaker flasks and laboratory scale bioreactors). Both cell lines were of CHO DUX-B11 origin based on a dhfr (dihydrofolate reductase) expression system. Both cell lines were cultured in the same chemically defined basal media (CDBM), with Cell Line 1 also utilizing a chemically-defined feed media (CDFM). Each of the respective media were supplemented with selected monosaccharides and oligosaccharides to evaluate their potential impact on the resulting N-glycan oligosaccharide profile. In preparing the cultures, the cell lines were serially expanded through separate seed train inoculums to generate enough cells for inoculation.
(§5) Viable cell density (VCD) and cell viability values were measured through trypan blue exclusion via Cedex automated cell counters (Roche Applied Science, Indianapolis, Ind.), glucose and lactate values were measured with a ABL-805 (Radiometer Medical, Denmark) blood gas analyzer. Offline pH, dissolved oxygen (DO), and pCO2 measurements were performed with a ABL-805 (Radiometer Medical, Denmark) blood gas analyzer. Osmolality was measured on a Multi-Osmette 2430 osmometer (Precision Systems, Natick, Mass.).
(§6) Antibody titers were measured from crude cell culture harvests on a Poros A™ (Life Technologies, Carlsbad, Calif.) affinity column using an Agilent (Santa Clara, Calif.) 1200 Series HPLC, or equivalent, operating with a low pH, step elution gradient with detection at 280 nm. Absolute concentrations were assigned with respect to reference standard calibration curves.
3 L scale-down model bioreactors were utilized to verify the impact of select sugars on the resulting protein glycosylation profiles. The concentration of the sucrose and tagatose was chosen to minimize any potential adverse impact on cell growth and productivity, but still facilitate a measurable modulation of the glycosylation profile. Cell culture process performance indicators were monitored and measured throughout the respective cultures. Viable cell density, cell viability, lactate, pCO2, osmolality, harvest titer, and harvest N-glycan oligosaccharide data were measured and reported.
as §1
Viable cell density (VCD) and cell viability values were measured through trypan blue exclusion via Cedex automated cell counters (Roche Applied Science, Indianapolis, Ind.), glucose and lactate values were measured with a ABL-805 (Radiometer Medical, Denmark) blood gas analyzer. Offline pH, dissolved oxygen (DO), and pCO2 measurements were performed with an ABL-805 (Radiometer Medical, Denmark) blood gas analyzer. […]

The test system of test [1] is Cell Line 2. The experiment in a line: Shake flask semi-fedbatch culture of Cell Line 2, cell culture performance (Example 1). Conditions: 7 mM. On the procedure: as §4, §5, §6
Cell Line 2 was evaluated in shake flask culture in semi-fedbatch mode. Sucrose was supplemented into the basal media at various concentrations to evaluate the resulting impact on cell culture performance, as well as the protein glycosylation profile. […] There was however, a very significant impact on the protein glycosylation profiles of harvest samples across all sucrose concentrations evaluated (FIG. 12). […]

Test [2] has as its system Cell Line 2. The experiment in a line: N-glycan oligosaccharide profiling, Cell Line 2 shake flasks (Example 1). Conditions: 30 mM supplement vs control. On the procedure: as §4, §2, §3
Cell Line 2 was evaluated in shake flask culture in semi-fedbatch mode. Sucrose was supplemented into the basal media at various concentrations to evaluate the resulting impact on cell culture performance, as well as the protein glycosylation profile. On average, 7 mM, 15 mM, and 30 mM sucrose all nominally impacted overall cell growth, with only slight drops in peak viable cell density (1×10^6-2×10^6 cells/mL) as compared to the unsupplemented control. […] There was however, a very significant impact on the protein glycosylation profiles of harvest samples across all sucrose concentrations evaluated (FIG. 12). A concentration-dependent modulation of protein glycosylation was observed that was consistent with the results obtained for Cell Line 1.

Entries after “also recorded” stand apart in the source; their conditions may differ.

With `OC[C@H]1O[C@@](CO)(O[C@H]2O[C@H](CO)[C@@H](O)[C@H](O)[C@H]2O)[C@@H](O)[C@@H]1O` [sucrose], in the test on Cell Line 3, the “cumulative increase in overall mannosylated N-glycans” value stood at 19%, the “decrease in overall fucosylation level” value was 19%, the “drop in NGA2F species” value turned out to be 27% and the “increase in Man 5 species” value came to 17%. Further, in the test on Cell Line 3, the “increase in Man 6 species” value came out at 1%, the “increase in Man 7 species” value turned out to be 1% and the “increase in NGA2F-GlcNAc species” value was found to be 8%. In addition, in the test with Cell Line 1, the Osmolality entry is listed as “only slightly higher”, the cell viability result is “no impact”, the lactate result is on record as “only a nominal increase” and the pCO2 entry is “no significant difference”. The viable cell density entry in the test with Cell Line 1 is recorded as “no impact”. In the test with Cell Line 1 (50 mM supplement), the “final harvest titer ratio” value is reported as 0.78. Besides, in the test on Cell Line 2 [1] (15 mM and 30 mM), the cell viability result is “not significantly different from each other” and the harvest titer entry is listed as “not significantly different from each other”. Further, the “drop in peak viable cell density” value in the test with Cell Line 2 [1] (15 mM and 30 mM vs control) is on record as 1×10^6-2×10^6 cells/mL. For the same compound, in the test with Cell Line 2 [2], the “cumulative increase in overall mannosylated N-glycans” value was 19%, the “drop in NGA2F species” value was determined as 27%, the “drop in overall fucosylation” value came to 19% and the “increase in Man 5 species” value is ≤ 17%. In the test on Cell Line 2 [2], the “increase in Man 6 species” value turned out to be 1% and the “increase in Man 7 species” value was 1%.
For `O=C(CO)[C@@H](O)[C@@H](O)[C@H](O)CO` [tagatose], in the test on Cell Line 1 (50 mM supplement), the “peak VCD” value is on record as 8.5×10^6 cells/mL and the “final harvest titer ratio” value is recorded as 0.90. Besides, in the test with Cell Line 1, the Osmolality entry is listed as “higher; also recorded: only slightly higher”, the cell viability entry was “remained high throughout the culture”, the lactate result is listed as “only a nominal increase” and the pCO2 result is “no significant difference”. Besides, in the test with Cell Line 1, the viable cell density result is “much more pronounced effect”.

The values are drawn from patent publication US9499614B2, “Methods for modulating protein glycosylation profiles of recombinant protein therapeutics using monosaccharides and oligosaccharides” (AbbVie, Inc., priority 2013, dated 2016).
